Source: patent US20180304019A1, “ADMINISTRATION APPARATUS” (DAICEL CORPORATION, priority 2015, published 2018)
Where two headings read alike, the source gives them in different places.

System: intradermal layer, skin tissue of the rabbit in vivo
Conditions: dose 100 μl
Description: Moreover, an object of the following experimental conditions is to confirm, when an inflammatory substance is administered to the intradermal layer which is skin tissue of the rabbit in vivo, a presence or absence of an inflammatory response (formation of erythema and eschar, and formation of edema) for each elapsed time (after 24 hours, 48 hours, and 72 hours). In addition, the injection of an injection solution with the needled injector was performed at a constant pressurization rate.
16-week-old male Std: JW/CSK rabbit, already shaved and smooth skin-verified, was used.
An aqueous solution of the following inflammatory substance was used as the dosing liquid and the injection solution.
Inflammatory substance: acetic acid, diluted to a predetermined concentration with distilled water, dose 100 μl
Definitions of numerical values representing the experimental results in the tables with respect to each of erythema and eschar formation and edema formation are as follows.
(Erythema and Eschar Formation)
1 Very slight erythema (barely perceptible erythema)
2 Slight erythema (clearly perceptible erythema)
3 Moderate to severe erythema
4 Severe erythema to eschar formations
1 Very slight edema (barely perceptible edema)
2 Slight edema (edema with edges perceptible due to definite raising)
3 Moderate edema (raised approximately 1 mm)
4 Severe edema (raised 1 mm or more and extending beyond the area of exposure)

[1] = acetic acid 0.25%, Comparative example (needled injector), 24 h
[2] = acetic acid 0.25%, Comparative example (needled injector), 48 h
[3] = acetic acid 0.25%, Comparative example (needled injector), 72 h
[4] = acetic acid 0.25%, Injector 1, 24 h
[5] = acetic acid 0.25%, Injector 1, 48 h
[6] = acetic acid 0.25%, Injector 1, 72 h
[7] = acetic acid 0.5%, Comparative example (needled injector), 24 h
[8] = acetic acid 0.5%, Comparative example (needled injector), 48 h
[9] = acetic acid 0.5%, Comparative example (needled injector), 72 h
[10] = acetic acid 0.5%, Injector 1, 24 h
[11] = acetic acid 0.5%, Injector 1, 48 h
[12] = acetic acid 0.5%, Injector 1, 72 h
[13] = acetic acid 1.0%, Comparative example (needled injector), 24 h
[14] = acetic acid 1.0%, Comparative example (needled injector), 48 h
[15] = acetic acid 1.0%, Comparative example (needled injector), 72 h
[16] = acetic acid 1.0%, Injector 1, 24 h
[17] = acetic acid 1.0%, Injector 1, 48 h
[18] = acetic acid 1.0%, Injector 1, 72 h
[19] = acetic acid 1.5%, Comparative example (needled injector), 24 h
[20] = acetic acid 1.5%, Comparative example (needled injector), 48 h
[21] = acetic acid 1.5%, Comparative example (needled injector), 72 h
[22] = acetic acid 1.5%, Injector 1, 24 h
[23] = acetic acid 1.5%, Injector 1, 48 h
[24] = acetic acid 1.5%, Injector 1, 72 h
[25] = acetic acid 2.0%, Comparative example (needled injector), 24 h
[26] = acetic acid 2.0%, Comparative example (needled injector), 48 h
[27] = acetic acid 2.0%, Comparative example (needled injector), 72 h
[28] = acetic acid 2.0%, Injector 1, 24 h
[29] = acetic acid 2.0%, Injector 1, 48 h
[30] = acetic acid 2.0%, Injector 1, 72 h

Compound: CC(=O)O [Acetic acid, acetic acid]
- Edema 24 h [1]: 0
- Erythema etc. 24 h [1]: 1
- Edema 48 h [2]: 0
- Erythema etc. 48 h [2]: 1
- Edema 72 h [3]: 0
- Erythema etc. 72 h [3]: 1
- Edema 24 h [4]: 0
- Erythema etc. 24 h [4]: 1
- Edema 48 h [5]: 0
- Erythema etc. 48 h [5]: 1
- Edema 72 h [6]: 0
- Erythema etc. 72 h [6]: 1
- Edema 24 h [7]: 0
- Erythema etc. 24 h [7]: 1
- Edema 48 h [8]: 0
- Erythema etc. 48 h [8]: 1
- Edema 72 h [9]: 0
- Erythema etc. 72 h [9]: 1
- Edema 24 h [10]: 0
- Erythema etc. 24 h [10]: 1
- Edema 48 h [11]: 0
- Erythema etc. 48 h [11]: 1
- Edema 72 h [12]: 0
- Erythema etc. 72 h [12]: 1
- Edema 24 h [13]: 1
- Erythema etc. 24 h [13]: 1
- Edema 48 h [14]: 1
- Erythema etc. 48 h [14]: 1
- Edema 72 h [15]: 1
- Erythema etc. 72 h [15]: 1
- Edema 24 h [16]: 0
- Erythema etc. 24 h [16]: 1
- Edema 48 h [17]: 0
- Erythema etc. 48 h [17]: 1
- Edema 72 h [18]: 0
- Erythema etc. 72 h [18]: 1
- Edema 24 h [19]: 2
- Erythema etc. 24 h [19]: 1
- Edema 48 h [20]: 2
- Erythema etc. 48 h [20]: 1
- Edema 72 h [21]: 2
- Erythema etc. 72 h [21]: 1
- Edema 24 h [22]: 0
- Erythema etc. 24 h [22]: 1
- Edema 48 h [23]: 0
- Erythema etc. 48 h [23]: 1
- Edema 72 h [24]: 0
- Erythema etc. 72 h [24]: 1
- Edema 24 h [25]: 3
- Erythema etc. 24 h [25]: 1
- Edema 48 h [26]: 3
- Erythema etc. 48 h [26]: 1
- Edema 72 h [27]: 2
- Erythema etc. 72 h [27]: 1
- Edema 24 h [28]: 1
- Erythema etc. 24 h [28]: 1
- Edema 48 h [29]: 1
- Erythema etc. 48 h [29]: 1
- Edema 72 h [30]: 1
- Erythema etc. 72 h [30]: 1
